The target in experiment [1] is Focal adhesion kinase 1 (Homo sapiens, UniProt Q05397). Description: Selectivity interaction (KinomeScan (DiscoverX)) EUB0001619a PTK2. As to conditions: at 1 µM.
In experiment [2] the target is T1, Ribosomal protein S6 kinase alpha-1 (Homo sapiens, UniProt Q15418). Description: Selectivity interaction (KinomeScan (DiscoverX)) EUB0001619a RPS6KA1. The note with it: at 1 µM.
Experiment [3] deals with T2, Eukaryotic elongation factor 2 kinase (Homo sapiens) (UniProt O00418).
T2 sequence (whole entry): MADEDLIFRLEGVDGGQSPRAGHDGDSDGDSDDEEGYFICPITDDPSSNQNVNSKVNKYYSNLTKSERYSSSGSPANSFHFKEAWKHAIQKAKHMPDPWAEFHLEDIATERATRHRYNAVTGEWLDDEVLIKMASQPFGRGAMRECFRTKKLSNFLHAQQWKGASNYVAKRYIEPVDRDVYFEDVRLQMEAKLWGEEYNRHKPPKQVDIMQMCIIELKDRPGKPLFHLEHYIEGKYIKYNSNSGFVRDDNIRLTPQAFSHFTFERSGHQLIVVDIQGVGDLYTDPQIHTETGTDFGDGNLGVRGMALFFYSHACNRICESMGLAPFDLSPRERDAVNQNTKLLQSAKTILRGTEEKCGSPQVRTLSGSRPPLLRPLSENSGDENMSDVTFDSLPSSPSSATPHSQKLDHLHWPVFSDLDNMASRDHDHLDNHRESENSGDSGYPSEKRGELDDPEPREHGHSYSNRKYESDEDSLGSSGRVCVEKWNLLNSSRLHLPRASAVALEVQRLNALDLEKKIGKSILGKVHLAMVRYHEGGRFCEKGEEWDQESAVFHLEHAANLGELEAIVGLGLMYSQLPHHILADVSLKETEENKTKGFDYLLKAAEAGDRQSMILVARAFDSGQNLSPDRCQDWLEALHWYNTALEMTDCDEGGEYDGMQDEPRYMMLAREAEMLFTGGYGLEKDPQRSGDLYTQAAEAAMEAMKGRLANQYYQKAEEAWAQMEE
Description: Selectivity interaction (ActivX KiNativ screen (ex vivo kinase selectivity in human PBMCs)) EUB0001619a EEF2K. The format is cell-based. The note with it: PBMC, at 1 µM.

The target in experiment [4] is T3, Receptor-interacting serine/threonine-protein kinase 1 (Homo sapiens) (UniProt Q13546).
T3 sequence (whole entry): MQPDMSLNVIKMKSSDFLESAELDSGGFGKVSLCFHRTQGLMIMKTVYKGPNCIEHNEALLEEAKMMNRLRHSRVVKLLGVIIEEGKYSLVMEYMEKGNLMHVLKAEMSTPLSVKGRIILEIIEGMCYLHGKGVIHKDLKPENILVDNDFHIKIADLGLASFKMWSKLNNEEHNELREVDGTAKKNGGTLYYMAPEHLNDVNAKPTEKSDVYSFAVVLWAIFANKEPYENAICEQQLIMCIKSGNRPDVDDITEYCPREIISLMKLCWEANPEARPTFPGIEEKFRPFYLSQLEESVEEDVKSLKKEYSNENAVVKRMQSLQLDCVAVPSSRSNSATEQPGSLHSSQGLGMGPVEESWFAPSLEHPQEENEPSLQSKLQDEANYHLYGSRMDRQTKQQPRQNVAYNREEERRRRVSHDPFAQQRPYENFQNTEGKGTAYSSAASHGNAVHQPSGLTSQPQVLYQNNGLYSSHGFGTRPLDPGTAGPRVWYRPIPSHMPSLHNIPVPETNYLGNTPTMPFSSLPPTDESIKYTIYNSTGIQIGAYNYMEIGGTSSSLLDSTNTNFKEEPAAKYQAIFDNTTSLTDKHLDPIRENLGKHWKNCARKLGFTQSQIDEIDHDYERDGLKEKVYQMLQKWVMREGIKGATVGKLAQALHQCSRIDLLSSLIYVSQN
The note with it: at 10 µM.

The target in experiment [5] is High affinity nerve growth factor receptor (Homo sapiens, UniProt P04629). Description: Selectivity interaction (KinomeScan (DiscoverX)) EUB0000695a NTRK1. The note with it: at 100 nM.
Experiment [6] concerns the target T4, Serine/threonine-protein kinase Nek5 (Homo sapiens) (UniProt Q6P3R8).
T4 sequence (whole entry): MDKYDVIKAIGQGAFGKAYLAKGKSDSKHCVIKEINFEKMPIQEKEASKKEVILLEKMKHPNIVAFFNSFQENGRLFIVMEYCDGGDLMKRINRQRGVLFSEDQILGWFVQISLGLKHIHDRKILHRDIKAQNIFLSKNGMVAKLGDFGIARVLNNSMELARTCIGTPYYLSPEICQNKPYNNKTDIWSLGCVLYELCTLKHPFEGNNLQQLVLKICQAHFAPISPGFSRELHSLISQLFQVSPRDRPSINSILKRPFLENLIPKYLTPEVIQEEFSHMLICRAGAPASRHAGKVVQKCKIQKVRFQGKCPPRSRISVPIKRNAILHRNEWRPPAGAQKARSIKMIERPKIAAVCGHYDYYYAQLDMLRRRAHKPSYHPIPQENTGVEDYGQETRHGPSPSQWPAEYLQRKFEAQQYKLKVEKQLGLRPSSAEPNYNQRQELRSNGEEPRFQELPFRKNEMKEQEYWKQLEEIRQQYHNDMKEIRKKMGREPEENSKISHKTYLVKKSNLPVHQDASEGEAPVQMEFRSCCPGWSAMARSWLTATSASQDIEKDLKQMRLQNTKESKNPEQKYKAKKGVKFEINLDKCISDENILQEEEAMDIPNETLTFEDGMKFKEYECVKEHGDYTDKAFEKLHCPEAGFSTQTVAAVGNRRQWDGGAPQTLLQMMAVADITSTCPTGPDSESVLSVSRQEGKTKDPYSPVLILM
Description: Selectivity interaction (KinomeScan (DiscoverX)) EUB0000666a NEK5. As to conditions: at 10 µM.

The target in experiment [7] is T1, Ribosomal protein S6 kinase alpha-1. Description: Selectivity interaction (KinomeScan (DiscoverX)) EUB0000045b RPS6KA1. The note with it: at 1 µM.
For experiment [8], the target named is Serine/threonine-protein kinase pim-2 (Homo sapiens, UniProt Q9P1W9). Description: Selectivity interaction (Ambit KINOMEscan and KiNATiv profiling in Jurkat cells) EUB0000090b PIM2. The format is cell-based. As to conditions: at 1 µM.
The target of experiment [9] is Death-associated protein kinase 3 (Homo sapiens) (UniProt O43293). Description: Selectivity interaction (KinomeScan (DiscoverX)) EUB0001049a DAPK3. The note with it: at 1 µM.
In experiment [10] the target is Casein kinase I isoform epsilon (Homo sapiens, UniProt P49674). Description: Selectivity interaction (KinomeScan (DiscoverX)) EUB0000655a CSNK1E. As to conditions: at 10 µM.
The target in experiment [11] is Ephrin type-A receptor 4 (Homo sapiens, UniProt P54764). Description: Selectivity interaction (KinomeScan (DiscoverX)) EUB0000092b EPHA4. The note with it: at 10 µM.
Experiment [12] concerns the target Serine/threonine-protein kinase WNK4 (Homo sapiens) (UniProt Q96J92). Description: Selectivity interaction (KinomeScan (DiscoverX)) EUB0001079a WNK4. The note with it: at 1 µM.

T1 sequence (Q15418 whole entry): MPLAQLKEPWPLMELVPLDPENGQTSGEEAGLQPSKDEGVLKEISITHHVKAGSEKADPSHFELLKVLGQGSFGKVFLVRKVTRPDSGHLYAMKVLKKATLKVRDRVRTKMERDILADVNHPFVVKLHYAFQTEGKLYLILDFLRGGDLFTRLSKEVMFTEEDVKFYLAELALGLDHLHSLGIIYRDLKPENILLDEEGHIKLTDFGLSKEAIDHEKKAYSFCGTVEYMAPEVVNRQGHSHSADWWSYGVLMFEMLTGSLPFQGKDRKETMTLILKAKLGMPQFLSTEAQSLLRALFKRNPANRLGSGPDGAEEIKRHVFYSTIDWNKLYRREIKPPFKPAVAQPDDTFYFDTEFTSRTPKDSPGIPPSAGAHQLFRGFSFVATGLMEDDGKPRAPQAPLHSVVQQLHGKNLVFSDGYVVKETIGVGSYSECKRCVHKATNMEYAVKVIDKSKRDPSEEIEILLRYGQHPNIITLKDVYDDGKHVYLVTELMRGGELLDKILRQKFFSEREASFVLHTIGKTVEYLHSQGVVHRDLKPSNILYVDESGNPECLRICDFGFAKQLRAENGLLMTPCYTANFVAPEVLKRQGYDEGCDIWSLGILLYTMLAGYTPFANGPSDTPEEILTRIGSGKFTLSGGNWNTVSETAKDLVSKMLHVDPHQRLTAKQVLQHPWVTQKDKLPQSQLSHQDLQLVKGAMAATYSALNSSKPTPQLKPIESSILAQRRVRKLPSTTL
Casein kinase I isoform epsilon, sequence (P49674 whole entry, looked up, canonical isoform): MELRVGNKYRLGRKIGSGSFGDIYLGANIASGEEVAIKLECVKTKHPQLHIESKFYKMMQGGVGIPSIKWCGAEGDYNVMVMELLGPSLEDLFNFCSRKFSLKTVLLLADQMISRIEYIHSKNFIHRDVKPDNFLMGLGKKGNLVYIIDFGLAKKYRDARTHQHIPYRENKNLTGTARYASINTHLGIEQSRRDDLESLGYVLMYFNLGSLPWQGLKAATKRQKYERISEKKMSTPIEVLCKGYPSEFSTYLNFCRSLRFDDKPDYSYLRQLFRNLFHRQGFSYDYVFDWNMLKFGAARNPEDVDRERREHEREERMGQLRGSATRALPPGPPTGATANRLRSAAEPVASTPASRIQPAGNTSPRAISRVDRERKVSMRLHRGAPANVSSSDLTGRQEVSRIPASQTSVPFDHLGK
Serine/threonine-protein kinase pim-2, sequence (Q9P1W9 whole entry, looked up): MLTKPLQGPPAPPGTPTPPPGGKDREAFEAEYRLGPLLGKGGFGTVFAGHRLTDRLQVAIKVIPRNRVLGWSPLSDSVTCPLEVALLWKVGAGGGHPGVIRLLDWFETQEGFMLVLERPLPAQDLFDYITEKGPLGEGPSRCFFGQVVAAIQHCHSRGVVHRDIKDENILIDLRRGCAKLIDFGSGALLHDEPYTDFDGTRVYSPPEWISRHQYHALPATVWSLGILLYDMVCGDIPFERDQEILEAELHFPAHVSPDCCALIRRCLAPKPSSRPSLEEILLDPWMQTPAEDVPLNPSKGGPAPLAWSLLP
Focal adhesion kinase 1, sequence (Q05397 2-1052 limits assumed): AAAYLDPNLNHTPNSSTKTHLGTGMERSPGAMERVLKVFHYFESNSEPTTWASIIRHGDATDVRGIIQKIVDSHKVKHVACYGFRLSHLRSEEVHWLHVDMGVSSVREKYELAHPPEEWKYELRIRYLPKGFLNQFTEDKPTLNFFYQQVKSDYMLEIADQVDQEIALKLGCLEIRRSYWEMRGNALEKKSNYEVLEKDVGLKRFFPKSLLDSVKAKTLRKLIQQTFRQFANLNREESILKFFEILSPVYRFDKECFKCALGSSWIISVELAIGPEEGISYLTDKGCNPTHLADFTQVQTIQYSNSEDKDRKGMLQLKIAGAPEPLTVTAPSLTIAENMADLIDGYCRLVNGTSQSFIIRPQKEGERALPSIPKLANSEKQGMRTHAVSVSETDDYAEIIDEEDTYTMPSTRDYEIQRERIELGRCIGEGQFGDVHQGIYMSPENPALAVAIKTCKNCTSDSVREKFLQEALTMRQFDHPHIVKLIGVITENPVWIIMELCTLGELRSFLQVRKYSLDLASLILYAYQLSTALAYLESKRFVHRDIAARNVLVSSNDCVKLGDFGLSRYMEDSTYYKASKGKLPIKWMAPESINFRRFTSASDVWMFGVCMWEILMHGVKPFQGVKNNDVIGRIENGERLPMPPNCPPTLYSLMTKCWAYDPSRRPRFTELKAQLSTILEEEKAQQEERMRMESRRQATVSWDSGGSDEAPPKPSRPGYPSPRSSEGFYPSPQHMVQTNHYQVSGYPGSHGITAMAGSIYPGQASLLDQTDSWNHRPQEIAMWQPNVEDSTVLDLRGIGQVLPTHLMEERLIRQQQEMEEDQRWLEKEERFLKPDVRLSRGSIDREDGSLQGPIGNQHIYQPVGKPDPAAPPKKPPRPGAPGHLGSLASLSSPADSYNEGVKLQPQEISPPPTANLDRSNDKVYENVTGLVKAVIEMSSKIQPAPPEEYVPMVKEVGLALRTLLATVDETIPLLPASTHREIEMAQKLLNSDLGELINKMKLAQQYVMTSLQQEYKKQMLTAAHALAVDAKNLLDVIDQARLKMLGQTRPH
High affinity nerve growth factor receptor, sequence (P04629 33-796 limits assumed): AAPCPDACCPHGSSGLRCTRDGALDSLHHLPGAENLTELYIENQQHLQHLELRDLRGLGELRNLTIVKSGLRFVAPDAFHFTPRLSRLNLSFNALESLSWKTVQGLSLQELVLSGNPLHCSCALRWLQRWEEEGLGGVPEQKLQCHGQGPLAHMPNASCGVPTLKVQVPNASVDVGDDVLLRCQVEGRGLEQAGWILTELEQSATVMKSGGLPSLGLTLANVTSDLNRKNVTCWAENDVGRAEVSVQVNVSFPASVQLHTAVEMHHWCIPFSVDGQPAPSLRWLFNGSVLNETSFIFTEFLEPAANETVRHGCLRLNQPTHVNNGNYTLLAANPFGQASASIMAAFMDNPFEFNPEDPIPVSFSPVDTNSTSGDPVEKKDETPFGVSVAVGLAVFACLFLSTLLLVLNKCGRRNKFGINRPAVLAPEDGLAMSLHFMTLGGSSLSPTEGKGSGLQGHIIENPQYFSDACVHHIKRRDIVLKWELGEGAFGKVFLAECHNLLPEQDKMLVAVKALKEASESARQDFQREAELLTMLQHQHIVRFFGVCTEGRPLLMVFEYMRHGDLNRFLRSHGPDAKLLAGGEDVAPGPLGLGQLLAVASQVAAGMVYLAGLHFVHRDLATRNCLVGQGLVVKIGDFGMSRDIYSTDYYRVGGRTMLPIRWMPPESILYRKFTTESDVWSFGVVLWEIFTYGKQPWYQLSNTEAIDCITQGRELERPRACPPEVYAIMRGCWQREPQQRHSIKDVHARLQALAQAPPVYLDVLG
Serine/threonine-protein kinase WNK4 (Homo sapiens), sequence (Q96J92 whole entry): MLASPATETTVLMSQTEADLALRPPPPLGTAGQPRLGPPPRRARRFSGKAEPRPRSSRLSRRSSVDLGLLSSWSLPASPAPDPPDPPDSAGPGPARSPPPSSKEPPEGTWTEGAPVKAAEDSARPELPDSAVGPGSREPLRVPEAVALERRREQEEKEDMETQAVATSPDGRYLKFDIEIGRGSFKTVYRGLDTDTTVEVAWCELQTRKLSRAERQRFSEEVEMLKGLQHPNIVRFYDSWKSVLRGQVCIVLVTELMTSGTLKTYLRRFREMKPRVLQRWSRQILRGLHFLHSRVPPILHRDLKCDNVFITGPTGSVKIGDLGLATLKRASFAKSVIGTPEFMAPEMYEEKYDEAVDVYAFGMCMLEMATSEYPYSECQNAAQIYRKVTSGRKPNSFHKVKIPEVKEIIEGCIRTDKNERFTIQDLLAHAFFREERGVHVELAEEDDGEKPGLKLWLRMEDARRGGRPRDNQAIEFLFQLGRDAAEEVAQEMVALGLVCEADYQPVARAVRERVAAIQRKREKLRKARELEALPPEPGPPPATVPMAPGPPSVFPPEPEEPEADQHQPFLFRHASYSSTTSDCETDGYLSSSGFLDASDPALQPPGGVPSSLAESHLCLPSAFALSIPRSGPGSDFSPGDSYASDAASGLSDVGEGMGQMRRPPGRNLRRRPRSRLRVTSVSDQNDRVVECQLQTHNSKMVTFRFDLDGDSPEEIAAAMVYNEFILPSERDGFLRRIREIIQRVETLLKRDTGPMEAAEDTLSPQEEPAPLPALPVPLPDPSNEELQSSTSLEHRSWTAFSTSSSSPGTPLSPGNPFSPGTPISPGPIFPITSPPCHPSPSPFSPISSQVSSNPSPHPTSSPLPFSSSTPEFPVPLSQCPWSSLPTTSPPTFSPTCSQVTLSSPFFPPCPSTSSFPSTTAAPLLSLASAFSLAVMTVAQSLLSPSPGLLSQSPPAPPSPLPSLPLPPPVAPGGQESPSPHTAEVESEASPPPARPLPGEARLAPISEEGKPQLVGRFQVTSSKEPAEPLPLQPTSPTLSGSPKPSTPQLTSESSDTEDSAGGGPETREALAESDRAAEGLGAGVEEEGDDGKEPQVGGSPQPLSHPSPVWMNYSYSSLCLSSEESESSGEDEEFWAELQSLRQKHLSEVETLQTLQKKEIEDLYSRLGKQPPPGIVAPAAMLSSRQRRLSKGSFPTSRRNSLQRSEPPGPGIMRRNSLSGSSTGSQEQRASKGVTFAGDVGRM
Death-associated protein kinase 3 (Homo sapiens), sequence (O43293 whole entry, looked up, canonical isoform): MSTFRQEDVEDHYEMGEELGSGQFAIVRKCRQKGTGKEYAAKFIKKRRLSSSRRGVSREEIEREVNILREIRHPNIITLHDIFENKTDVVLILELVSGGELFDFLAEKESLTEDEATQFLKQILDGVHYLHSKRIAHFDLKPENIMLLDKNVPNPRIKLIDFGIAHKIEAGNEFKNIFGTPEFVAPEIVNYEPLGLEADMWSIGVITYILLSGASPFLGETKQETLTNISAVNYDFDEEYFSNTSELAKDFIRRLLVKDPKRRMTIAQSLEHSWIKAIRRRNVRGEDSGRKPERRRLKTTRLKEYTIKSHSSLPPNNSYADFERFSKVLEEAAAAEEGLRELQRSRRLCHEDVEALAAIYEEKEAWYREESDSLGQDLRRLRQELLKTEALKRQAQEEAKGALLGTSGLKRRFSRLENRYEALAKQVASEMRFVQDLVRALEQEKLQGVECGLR

For the compound `N#Cc1cccc(-c2c[nH]c3ncnc(N4CCOCC4)c23)c1`, the % of control in experiment [1] and in experiment [2] was 100% throughout. Besides, in experiment [3], the % of inhibition was found to be 3%.

`CCN(CC)CCCCNc1ncc2cc(-c3cc(OC)cc(OC)c3)c(NC(=O)NC(C)(C)C)nc2n1` had a % of control in [4] of 100%.

In experiment [5], `Cc1cc(F)c(C(=O)Nc2cccc(-c3nncn3C(C)C)n2)cc1-n1cnc(C2CC2)c1` gave a % of control of 79%.

Compound `O=C(NOC[C@H](O)CO)c1ccc(F)c(F)c1Nc1ccc(I)cc1F` had a % of control in experiment [6] of 78%.

For `C=CC(=O)Nc1cc(-n2c(=O)ccc3cnc4ccc(-c5ccc(NS(C)(=O)=O)cc5)cc4c32)ccc1C`, the % of control in experiment [7] was 91%.

For `CN(C)C/C=C/C(=O)Nc1ccc(C(=O)N2CCCC(Nc3ncc(Cl)c(-c4c[nH]c5ccccc45)n3)C2)cc1` (configuration not stated), in experiment [8], the % of control is 89%.

As to `COc1cc(Nc2nc(C)cc(-c3cnn4nc(OC)ccc34)n2)cc(C(F)(F)F)c1`, the % of control in [9] is 100%.

For `CN(C)CCOc1ccc(-c2nc(-c3ccncc3)c(-c3ccc4c(c3)CC/C4=N\O)[nH]2)cc1`, the % of control in experiment [10] was found to be 14%.

In [11], `CCC(=O)N1CCN(c2ccc(-n3c(=O)ccc4cnc5ccc(-c6cnc7ccccc7c6)cc5c43)cc2C(F)(F)F)CC1` returned a % of control of 90%.

In turn, `Nc1cnc(N2CCc3cc(S(=O)(=O)Nc4c(F)cc(Cl)cc4F)cc(N4CCCC4=O)c32)nc1` [TP-020n] had a % of control in experiment [12] of 100%.

The values above are taken from ChEMBL document CHEMBL5465560, “Selectivity Literature for EUbOPEN Chemogenomic Library” (2024).
